Measured values published in US12668763B2, “Co-culturing device, motor neuron culturing device, multi-well plate, fabrication method of in vitro evaluation model of neuromuscular disease, and screening method of therapeutic agent against neuromuscular disease” (priority 2019, dated 2026).

Test system: motor neuron / skeletal muscle tissue (neuromuscular junction) of the evaluation model
Experiment: Contraction of skeletal muscle tissue caused by stimulation of motor neurons in the evaluation model (device a), moving-image analysis
Format: cell-based, human

| Compound | contraction of a skeletal muscle tissue after addition of the drug |
| --- | --- |
| NC1=N[C@H](O)[C@H]2[C@H]3O[C@]4(O)O[C@@H]([C@@H](O)[C@@]2(N1)[C@@H]4O)[C@]3(O)CO [tetrodotoxin] | stops contraction of a skeletal muscle tissue |
| N[C@@H](CCC(=O)O)C(=O)O [glutamic acid, Glutamic acid] | causes contraction of a skeletal muscle tissue |
